Reference: patent US20250179126A1, “A NOVEL PEPTIDE FROM A PHOTOSYNTHETIC BACERIUM DIRECTLY TARGETS MITOCHONDRIA TO TRIGGER APOPTOSIS IN ADVANCED PROSTATE CANCER CELLS” (priority 2022, published 2025)

Columns and labels:
[1] = tested on: Human cancer cells; assay: MTT cell viability assay, human cancer cell panel; assay type: cell-based; conditions: 5-100 μM, 24 hr, 37° C.
Method: (§1) Cell viability was detected by MTT assays, and the control (PBS-treated) cells were considered 100% viable. Mean±SE (N=3). *P<0.05, **P<0.01, ***P<0.001.
Cytotoxicity assay: The MTT assay was performed as we previously described (Cha et al., Cancer Research 2020, 80: 1615-1623).

[2] = molecular target: T1, mitochondrial ATP synthase gamma subunit (ATP5C) (Homo sapiens, UniProt P36542); assay: Pull-down assay with biotin-labeled peptides and protein identification; assay type: binding; conditions: mitochondrial fraction of PC3 cells, biotin-labeled peptide, 16 hr at 4° C.
T1 construct: endogenous in cells; host or cells: PC3 human prostate cancer cells, mitochondrial fraction (detergent extract)
T1 sequence (P36542 26-298): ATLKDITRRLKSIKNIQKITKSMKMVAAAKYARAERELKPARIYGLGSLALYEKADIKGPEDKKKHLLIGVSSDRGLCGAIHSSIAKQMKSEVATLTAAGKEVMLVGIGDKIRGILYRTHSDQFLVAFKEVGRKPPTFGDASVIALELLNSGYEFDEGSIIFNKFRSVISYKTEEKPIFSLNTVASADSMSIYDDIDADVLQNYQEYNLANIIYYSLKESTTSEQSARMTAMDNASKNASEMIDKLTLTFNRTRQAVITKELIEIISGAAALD
From the text: 8A, TEM image of PC3 cells. Representative TEM micrograph of aurB-treated cells depicting the intraritochondrial localization of aurB-GNRs (arrowheads) and mitochondria](Mt) swelling. Scale bar: 600 nm. Mt: mitochondria. […] Coomassie-stained SDS-PAGE gels are shown (8B). The protein band at ˜35 kDa (arrowhead) was identified as ATP5C using mass spectrometry analysis. The identified fragments are indicated in green underlined sequence (SEQ ID NO: 4)(8C).
Pull-down assay and protein identification: PC3 cells were washed twice with PBS, and the mitochondrial fraction was prepared with a Qproteome mitochondria isolation kit (Qiagen). […] The peptides were then preincubated with streptavidin-agarose beads for 4 hr. After washing, the beads were boiled, and the released proteins were subjected to SDS-PAGE analysis. A protein band of ˜35 kDa was subjected to microcapillary LC/MS/MS for protein identification (Harvard Medical School, Taplin Mass Spectrometry Facility). For IB, proteins were transferred to nitrocellulose membranes. After blocking with 5% BSA in TBST, the membranes were incubated with anti-ATP5C antibody at 1:25,000 in 5% BSA/TBST (Abcam) for 16 hr at 4° C. The secondary antibody was applied (anti-goat IgG-HRP; Santa Cruz Biotechnology). The signal was detected using enhanced chemiluminescence (ECL).

[3] = tested on: PC3 cells; assay: Annexin-V apoptosis assay by flow cytometry, PC3; assay type: cell-based, human; conditions: PC3, 48 hr; Ptxl 1 nM, p28 50 μM, aurA/aurB 0.5-50 μM
Method: (§2) FIG. 7A-7D: Determination of apoptotic cell death. Prostate cancer cell lines (7A: LNCaP, 7B: DU145 and 7C: PC3) and normal prostate CRL11611 cells (7D) were exposed to the indicated agents for 48 hr and stained using apoptosis assay kits according to the manufacturer's instructions. The samples were analyzed by flow cytometry. Mean±SE (N=3).
(§3) After 48 hr, annexin-V apoptosis assays (Thermo Fisher Scientific) were conducted to detect apoptotic cells. At least 10,000 cells in each case were analyzed by FACS (RRC, UIC).

[4] = Water solubility of peptides
[5] = tested on: LNCaP cells; assay: Annexin-V apoptosis assay by flow cytometry, LNCaP; assay type: cell-based, human; conditions: 48 hr, Ptxl 1 nM, p28 50 μM, aurA/aurB 0.5-50 μM
Method: as §2, §3

[6] = tested on: DU145 prostate cancer cells; assay: MTT cell viability assay, DU145 prostate cancer cells; assay type: cell-based, human; conditions: DU145 (p53-mutant, AR−), 24-72 hr; paclitaxel 1 nM
From the text: as §1
(§4) Cell lines and culture: Human cancer and noncancer (immortalized and nonimmortalized) cell lines were obtained from the American Type Culture Collection [prostate cancer (PC3, DU145 and LNCaP), normal prostate (CRL11611), breast cancer (MCF-7), ovarian cancer (SK-OV3 adenocarcinoma), lung cancer (A549)]. MDD2 breast cancer cells (p53 dominant-negative) were provided courtesy of Dr Andrei V. Gudkov, Roswell Park Cancer Institute. 20 All cell lines were cultured in MEM-E (Invitrogen) supplemented with 10% heat-inactivated fetal bovine serum (Atlanta Biological, Inc.), 100 units/mL penicillin, and 100 μg/mL streptomycin at 37° C. in 5% CO2.

[7] = tested on: normal prostate CRL11611 cells; assay: Annexin-V apoptosis assay by flow cytometry, normal prostate CRL11611; assay type: cell-based, human; conditions: normal CRL11611, 48 hr; Ptxl 1 nM, p28 50 μM, aurA/aurB 0.5-50 μM
Method: as §2, §3

[8] = tested on: DU145 cells; assay: Annexin-V apoptosis assay by flow cytometry, DU145; assay type: cell-based, human; conditions: DU145, 48 hr; Ptxl 1 nM, p28 50 μM, aurA/aurB 0.5-50 μM
Method: as §2, §3

[9] = tested on: PC3 cells; assay: JC-1 mitochondrial membrane potential assay; assay type: cell-based, human; conditions: PC3, 1, 10 and 100 μM
Method: Cells were stained by using JC-1 Mitochondrial Membrane Potential Assay Kits according to the manufacturer's instructions to measure mitochondrial membrane potential, and fluorescence was measured by flow cytometry. 9B, Caspase-3 is involved in aurB-induced apoptosis. […] The inhibitor was used at the indicated concentrations. Mean±SE (N=3).
JC-1 dye (Invitrogen) was used to determine mitochondrial membrane potential. […] After washing with PBS, trypsinized PC3 cells were incubated with JC-1 dye and analyzed by FACS.

[10] = tested on: LNCaP prostate cancer cells; assay: MTT cell viability assay, LNCaP prostate cancer cells; assay type: cell-based, human; conditions: LNCaP (p53 wild-type, AR+), 24-72 hr; paclitaxel 1 nM
Method: as §4

[11] = tested on: PC3 prostate cancer cells; assay: MTT cell viability assay, PC3 prostate cancer cells; assay type: cell-based, human; conditions: PC3 (p53-null, AR−), 24-72 hr; paclitaxel 1 nM
Method: as §4

[12] = tested on: PC3 cells; assay: Cellular membrane toxicity, LDH leakage assay; assay type: cell-based, human; conditions: PC3, 0.2-200 μM, 37° C.
Method: FIG. 6A-6B: Cellular membrane toxicity assays. […] Cells treated with lysis buffer were defined as having 100% LDH release. Mean±SE (N=3).
Cellular membrane toxicity: LDH assays were performed as we previously described (Cha et al., Cancer Research 2020, 80: 1615-1623).

Q: With “LVK GGE AEA ANI ANA GLS AGP AAN YLPA [aurA]” as the substance, how does the “anti-proliferative effect (MTT cell viability)” value [1] read?
A: little effect at any concentration tested

Q: What about the “binding to ATP5C (pull-down of ~35 kDa protein, IB)” value [2] of the same substance?
A: did not

Q: And the apoptotic cell death [3]?
A: very little effect

Q: And the water solubility [4]?
A: highly water-soluble

Q: And the apoptotic cell death [5]?
A: very little effect

Q: What about the “cytotoxic effect (MTT cell viability)” value [6] of the same substance?
A: not active

Q: And the apoptotic cell death [7]?
A: very little effect

Q: What about the apoptotic cell death [8] of the same substance?
A: very little effect

Q: And the “effect on mitochondrial membrane potential (JC-1)” value [9]?
A: did not impact

Q: And the “cytotoxic effect (MTT cell viability)” value [10]?
A: not active

Q: What about the “cytotoxic effect (MTT cell viability)” value [11] of the same substance?
A: not active

Q: What about the “cellular membrane toxicity (LDH release)” value [12] of the same substance?
A: Neither aurA nor aurB induced cellular membrane toxicity at any concentrations
